# Assay results from US20240041877A1, “DOSAGE REGIME AND METHOD FOR TREATING PULMONARY ARTERIAL HYPERTENSION” (Altavant Sciences GmbH, priority 2019, published 2024).
# Experiment: Part 2 (MAD): plasma pharmacokinetics after BID oral KAR5585 for 14 days (incl. accumulation ratios and dose proportionality)
# [1] = KAR5585 200 mg BID fed, Cohort 3, Day 1 PM, mean
# [2] = KAR5585 200 mg BID fed, Cohort 3, Day 7 AM, Day 7/Day 1 accumulation ratio, geo. mean
# [3] = KAR5585 200 mg BID fed, Cohort 3, Day 7 AM, Day 7/Day 1 accumulation ratio, mean
# [4] = KAR5585 200 mg BID fed, Cohort 3, Day 7 AM, geo. mean
# [5] = KAR5585 200 mg BID fed, Cohort 3, Day 7 AM, mean
# [6] = KAR5585 200 mg BID fed, Cohort 3, Day 7 PM, Day 7/Day 1 accumulation ratio, geo. mean
# [7] = KAR5585 200 mg BID fed, Cohort 3, Day 7 PM, Day 7/Day 1 accumulation ratio, mean
# [8] = KAR5585 200 mg BID fed, Cohort 3, Day 7 PM, geo. mean
# [9] = KAR5585 200 mg BID fed, Cohort 3, Day 7 PM, mean
# [10] = KAR5585 200 mg BID fed, Cohort 3, Day 14 AM, Day 14/Day 1 accumulation ratio, geo. mean
# [11] = KAR5585 200 mg BID fed, Cohort 3, Day 14 AM, Day 14/Day 1 accumulation ratio, mean
# [12] = KAR5585 200 mg BID fed, Cohort 3, Day 14 AM, geo. mean
# [13] = KAR5585 200 mg BID fed, Cohort 3, Day 14 AM, mean
# [14] = KAR5585 400 mg BID fed, Cohort 4, Day 1 AM, geo. mean
# [15] = KAR5585 400 mg BID fed, Cohort 4, Day 1 AM, mean
# [16] = KAR5585 400 mg BID fed, Cohort 4, Day 1 PM, geo. mean
# [17] = KAR5585 400 mg BID fed, Cohort 4, Day 1 PM, mean
# [18] = KAR5585 400 mg BID fed, Cohort 4, Day 7 AM, Day 7/Day 1 accumulation ratio, geo. mean
# [19] = KAR5585 400 mg BID fed, Cohort 4, Day 7 AM, Day 7/Day 1 accumulation ratio, mean
# [20] = KAR5585 400 mg BID fed, Cohort 4, Day 7 AM, geo. mean
# [21] = KAR5585 400 mg BID fed, Cohort 4, Day 7 AM, mean
# [22] = KAR5585 400 mg BID fed, Cohort 4, Day 7 PM, Day 7/Day 1 accumulation ratio, geo. mean
# [23] = KAR5585 400 mg BID fed, Cohort 4, Day 7 PM, Day 7/Day 1 accumulation ratio, mean
# [24] = KAR5585 400 mg BID fed, Cohort 4, Day 7 PM, geo. mean
# [25] = KAR5585 400 mg BID fed, Cohort 4, Day 7 PM, mean
# [26] = KAR5585 400 mg BID fed, Cohort 4, Day 14 AM, Day 14/Day 1 accumulation ratio, geo. mean
# [27] = KAR5585 400 mg BID fed, Cohort 4, Day 14 AM, Day 14/Day 1 accumulation ratio, mean
# [28] = KAR5585 400 mg BID fed, Cohort 4, Day 14 AM, geo. mean
# [29] = KAR5585 400 mg BID fed, Cohort 4, Day 14 AM, mean
# [30] = power model, PK Day 1 (AM), 100 to 400 mg KAR5585 repeat oral doses, fed
# [31] = power model, PK Day 7 (AM), 100 to 400 mg KAR5585 repeat oral doses, fed
# [32] = power model, PK Day 14 (AM), 100 to 400 mg KAR5585 repeat oral doses, fed
# Excerpt: Food effect was to be evaluated in Part 1, Period 2.
# Pharmacokinetic data were to be summarized descriptively.
smiles,measurement,setting,value
"Nc1nc(O[C@H](c2ccc(Cl)cc2-c2ccccc2)C(F)(F)F)cc(N2CCC3(CC2)CN[C@H](C(=O)O)C3)n1 [KAR5417, (S)-8-(2-amino-6-((R)-1-(5-chloro-[1,1T-biphenyl]-2-yl)-2,2,2-trifluoroeth-oxy)pyrimidin-4-yl)-2,8-diazaspiro[4.5]decane-3-carboxylic acid]",t1/2,"KAR5585 200 mg BID fed, Cohort 3, Day 1 PM, geo. mean",5.95 h
same,AUC0-12,[1],2000 ng·h/mL
same,AUC0-24,[1],3700 ng·h/mL
same,AUC0-24/D,[1],9.26 (hr*ng/ml)/mg
same,AUC0-∞,[1],2720 ng·h/mL
same,C12,[1],112 ng/mL
same,Cmax,[1],322 ng/mL
same,Cmax/D,[1],1.61 (ng/ml)/mg
same,t1/2,[1],6.03 h
same,Tmax,"KAR5585 200 mg BID fed, Cohort 3, Day 1 PM, median",4.0 h
same,RAUC0-12,[2],1.33
same,RCmax,[2],0.989
same,RAUC0-12,[3],1.34
same,RCmax,[3],1.00
same,AUC0-12,[4],2150 ng·h/mL
same,AUC0-∞,[4],2610 ng·h/mL
same,C12,[4],87.2 ng/mL
same,Cmax,[4],332 ng/mL
same,Cmax/D,[4],1.66 (ng/ml)/mg
same,t1/2,[4],4.57 h
same,AUC0-12,[5],2300 ng·h/mL
same,AUC0-∞,[5],2800 ng·h/mL
same,C12,[5],93.1 ng/mL
same,Cmax,[5],359 ng/mL
same,Cmax/D,[5],1.80 (ng/ml)/mg
same,t1/2,[5],4.61 h
same,RAUC0-12,[6],0.955
same,RCmax,[6],0.645
same,RAUC0-12,[7],0.984
same,RCmax,[7],0.711
same,AUC0-12,[8],1490 ng·h/mL
same,AUC0-24,[8],3620 ng·h/mL
same,AUC0-24/D,[8],9.05 (hr*ng/ml)/mg
same,AUC0-∞,[8],2270 ng·h/mL
same,C12,[8],131 ng/mL
same,Cmax,[8],212 ng/mL
same,Cmax/D,[8],1.06 (ng/ml)/mg
same,t1/2,[8],6.48 h
same,AUC0-12,[9],1540 ng·h/mL
same,AUC0-24,[9],3810 ng·h/mL
same,AUC0-24/D,[9],9.52 (hr*ng/ml)/mg
same,AUC0-∞,[9],2280 ng·h/mL
same,C12,[9],145 ng/mL
same,Cmax/D,[9],1.11 (ng/ml)/mg
same,t1/2,[9],6.64 h
same,RAUC0-12,[10],1.07
same,RCmax,[10],0.854
same,RAUC0-12,[11],1.09
same,RCmax,[11],0.901
same,AUC0-12,[12],1670 ng·h/mL
same,AUC0-24,[12],2200 ng·h/mL
same,AUC0-∞,[12],3250 ng·h/mL
same,C12,[12],59.6 ng/mL
same,Cmax,[12],281 ng/mL
same,Cmax/D,[12],1.40 (ng/ml)/mg
same,t1/2,[12],24.1 h
same,AUC0-12,[13],1820 ng·h/mL
same,AUC0-24,[13],2380 ng·h/mL
same,AUC0-∞,[13],3480 ng·h/mL
same,C12,[13],63.5 ng/mL
same,C24,[13],32.6 ng/mL
same,Cmax,[13],319 ng/mL
same,Cmax/D,[13],1.59 (ng/ml)/mg
same,t1/2,[13],25.0 h
same,AUC0-12,[14],2920 ng·h/mL
same,AUC0-∞,[14],3400 ng·h/mL
same,C12,[14],90.2 ng/mL
same,Cmax,[14],532 ng/mL
same,Cmax/D,[14],1.33 (ng/ml)/mg
same,t1/2,[14],3.71 h
same,AUC0-12,[15],3280 ng·h/mL
same,AUC0-∞,[15],3780 ng·h/mL
same,C12,[15],99.3 ng/mL
same,Cmax,[15],595 ng/mL
same,Cmax/D,[15],1.49 (ng/ml)/mg
same,t1/2,[15],3.80 h
same,AUC0-12,[16],4340 ng·h/mL
same,AUC0-24,[16],7430 ng·h/mL
same,AUC0-24/D,[16],9.28 (hr*ng/ml)/mg
same,AUC0-∞,[16],6860 ng·h/mL
same,C12,[16],242 ng/mL
same,Cmax,[16],670 ng/mL
same,Cmax/D,[16],1.68 (ng/ml)/mg
same,t1/2,[16],5.3 h
same,AUC0-12,[17],4590 ng·h/mL
same,AUC0-24,[17],7870 ng·h/mL
same,AUC0-24/D,[17],9.83 (hr*ng/ml)/mg
same,AUC0-∞,[17],7090 ng·h/mL
same,C12,[17],252 ng/mL
same,Cmax,[17],739 ng/mL
same,Cmax/D,[17],1.85 (ng/ml)/mg
same,t1/2,[17],5.31 h
same,RAUC0-12,[18],2.15
same,RCmax,[18],1.81
same,RAUC0-12,[19],2.38
same,RCmax,[19],2.00
same,AUC0-12,[20],6250 ng·h/mL
same,AUC0-∞,[20],7480 ng·h/mL
same,C12,[20],222 ng/mL
same,Cmax,[20],960 ng/mL
same,Cmax/D,[20],2.40 (ng/ml)/mg
same,t1/2,[20],3.89 h
same,AUC0-12,[21],6600 ng·h/mL
same,AUC0-∞,[21],7840 ng·h/mL
same,C12,[21],240 ng/mL
same,Cmax,[21],1000 ng/mL
same,Cmax/D,[21],2.51 (ng/ml)/mg
same,t1/2,[21],3.94 h
same,RAUC0-12,[22],1.50
same,RCmax,[22],1.08
same,RAUC0-12,[23],1.63
same,RCmax,[23],1.18
same,AUC0-12,[24],4360 ng·h/mL
same,AUC0-24,[24],10600 ng·h/mL
same,AUC0-24/D,[24],13.3 (hr*ng/ml)/mg
same,AUC0-∞,[24],6450 ng·h/mL
same,C12,[24],356 ng/mL
same,Cmax,[24],574 ng/mL
same,Cmax/D,[24],1.44 (ng/ml)/mg
same,t1/2,[24],5.08 h
same,AUC0-12,[25],4610 ng·h/mL
same,AUC0-24,[25],11200 ng·h/mL
same,AUC0-24/D,[25],14.0 (hr*ng/ml)/mg
same,AUC0-∞,[25],6520 ng·h/mL
same,C12,[25],396 ng/mL
same,Cmax/D,[25],1.52 (ng/ml)/mg
same,t1/2,[25],5.10 h
same,RAUC0-12,[26],1.43
same,RCmax,[26],1.35
same,RAUC0-12,[27],1.65
same,RCmax,[27],1.54
same,AUC0-12,[28],4160 ng·h/mL
same,AUC0-24,[28],5410 ng·h/mL
same,AUC0-24/D,[28],13.5 (hr*ng/ml)/mg
same,AUC0-∞,[28],8120 ng·h/mL
same,C12,[28],140 ng/mL
same,C24,[28],73.3 ng/mL
same,Cmax,[28],717 ng/mL
same,Cmax/D,[28],1.79 (ng/ml)/mg
same,t1/2,[28],30.4 h
same,AUC0-24,[29],5660 ng·h/mL
same,AUC0-24/D,[29],14.1 (hr*ng/ml)/mg
same,AUC0-∞,[29],8500 ng·h/mL
same,C12,[29],149 ng/mL
same,Cmax,[29],749 ng/mL
same,Cmax/D,[29],1.87 (ng/ml)/mg
same,t1/2,[29],30.6 h
same,"Dose proportionality analysis, AUC0-12: Intercept estimate",[30],0.828
same,"Dose proportionality analysis, AUC0-inf: Intercept estimate",[30],1.12
same,"Dose proportionality analysis, Cmax: Intercept estimate",[30],0.167
same,"Dose proportionality analysis, AUC0-12: Intercept estimate",[31],2.63
same,"Dose proportionality analysis, Cmax: Intercept estimate",[31],0.393
same,"Dose proportionality analysis, AUC0-12: Intercept estimate",[32],5.18
same,"Dose proportionality analysis, Cmax: Intercept estimate",[32],0.877
